Columns and labels:
KDR (h) = KDR (h) (Homo sapiens, UniProt P35968); experiment: KDR (VEGFR2) (enzymatic assay), TR-FRET; assay type: biochemical; conditions: read-out: VEGFR 2 (KDR) pIC50 (converted)
Method in brief: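 TR-FRET readout (ex 340, em 620/655 nm) in RFU after EDTA stop with Eu-anti-phosphotyrosine and SA-XL665 for 60 min. The preceding 120-min room-temperature kinase step used 150 ng/ml KDR (h), 3 μM ATP, 500 nM biotinylated Flt3 peptide, MnCl2-containing HEPES buffer pH 7.5, 1% DMSO.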

[1] = system: Ba/F3-FGFR1-transfected cells; experiment: Ba/F3-FGFR1 (plus IL3) cellular proliferation assay, counterscreen with 10 ng/ml murine IL3; assay type: cell-based; conditions: plus IL3 (10 ng/ml murine IL3, counterscreen); read-out: BAF3-FGFR1 (PLUS IL3) pIC50 (converted)
Method in brief: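 Proliferation read-out: resazurin-based Alamar Blue fluorescence (540/590 nm) after 4 h, following 24 h compound treatment of 20000 Ba/F3-FGFR1 cells per well in 10% FBS RPMI at 37° C. IL3 counterscreen used the same protocol plus 10 ng/ml murine IL3.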

[2] = target: T1, Ba/F3-FGFR3-transfected cells (Homo sapiens, UniProt P22607); experiment: Ba/F3-FGFR3 (minus IL3) cellular proliferation assay, Alamar Blue; assay type: cell-based
T1 construct: BAF3-FGFR3 (MIN IL3) pIC50; other: minus IL3
T1 sequence (P22607 whole entry, change not shown): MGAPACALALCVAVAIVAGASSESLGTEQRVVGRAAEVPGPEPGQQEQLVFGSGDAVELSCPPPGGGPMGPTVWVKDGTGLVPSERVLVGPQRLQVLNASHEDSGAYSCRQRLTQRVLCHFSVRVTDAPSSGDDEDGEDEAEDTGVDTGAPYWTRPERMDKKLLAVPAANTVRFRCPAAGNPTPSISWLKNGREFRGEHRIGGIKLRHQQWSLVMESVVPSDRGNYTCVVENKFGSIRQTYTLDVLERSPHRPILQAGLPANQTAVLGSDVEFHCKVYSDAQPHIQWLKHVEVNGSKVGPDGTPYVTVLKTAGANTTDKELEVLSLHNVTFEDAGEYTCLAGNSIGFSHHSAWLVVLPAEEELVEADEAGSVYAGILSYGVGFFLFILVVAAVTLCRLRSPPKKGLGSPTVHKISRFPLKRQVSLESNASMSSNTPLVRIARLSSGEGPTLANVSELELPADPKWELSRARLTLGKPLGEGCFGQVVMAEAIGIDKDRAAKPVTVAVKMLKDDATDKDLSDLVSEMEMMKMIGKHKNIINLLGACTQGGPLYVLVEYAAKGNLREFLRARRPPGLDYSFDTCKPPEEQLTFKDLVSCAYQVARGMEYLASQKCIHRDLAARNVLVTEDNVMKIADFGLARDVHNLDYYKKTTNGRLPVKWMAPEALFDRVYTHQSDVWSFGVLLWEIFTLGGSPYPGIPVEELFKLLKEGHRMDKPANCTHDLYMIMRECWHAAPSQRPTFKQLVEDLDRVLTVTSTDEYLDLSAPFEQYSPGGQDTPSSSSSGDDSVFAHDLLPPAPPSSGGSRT
Method in brief: (§1)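 Ba/F3 cells transfected with FGFR3, 20000/well in phenol red-free RPMI-1640 with 10% FBS, exposed to compound for 24 h at 37 °C, 5% CO2. Alamar Blue (resazurin) added for 4 h more; fluorescence read at ex 540/em 590 nm. Counterscreen run the same way with 10 ng/ml murine IL3.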

[3] = system: Ba/F3-FGFR3-transfected cells; experiment: Ba/F3-FGFR3 (plus IL3) cellular proliferation assay, counterscreen with 10 ng/ml murine IL3; assay type: cell-based; conditions: plus IL3 (10 ng/ml murine IL3, counterscreen); read-out: BAF3-FGFR3 (PLUS IL3) pIC50 (converted)
Method in brief: as §1

[4] = target: T2, Ba/F3-KDR-transfected cells (Homo sapiens, UniProt P35968); experiment: Ba/F3-KDR (minus IL3) cellular proliferation assay, Alamar Blue; assay type: cell-based
T2 construct: BAF3-KDR (MIN IL3) pIC50; other: minus IL3
T2 sequence (P35968 whole entry, change not shown): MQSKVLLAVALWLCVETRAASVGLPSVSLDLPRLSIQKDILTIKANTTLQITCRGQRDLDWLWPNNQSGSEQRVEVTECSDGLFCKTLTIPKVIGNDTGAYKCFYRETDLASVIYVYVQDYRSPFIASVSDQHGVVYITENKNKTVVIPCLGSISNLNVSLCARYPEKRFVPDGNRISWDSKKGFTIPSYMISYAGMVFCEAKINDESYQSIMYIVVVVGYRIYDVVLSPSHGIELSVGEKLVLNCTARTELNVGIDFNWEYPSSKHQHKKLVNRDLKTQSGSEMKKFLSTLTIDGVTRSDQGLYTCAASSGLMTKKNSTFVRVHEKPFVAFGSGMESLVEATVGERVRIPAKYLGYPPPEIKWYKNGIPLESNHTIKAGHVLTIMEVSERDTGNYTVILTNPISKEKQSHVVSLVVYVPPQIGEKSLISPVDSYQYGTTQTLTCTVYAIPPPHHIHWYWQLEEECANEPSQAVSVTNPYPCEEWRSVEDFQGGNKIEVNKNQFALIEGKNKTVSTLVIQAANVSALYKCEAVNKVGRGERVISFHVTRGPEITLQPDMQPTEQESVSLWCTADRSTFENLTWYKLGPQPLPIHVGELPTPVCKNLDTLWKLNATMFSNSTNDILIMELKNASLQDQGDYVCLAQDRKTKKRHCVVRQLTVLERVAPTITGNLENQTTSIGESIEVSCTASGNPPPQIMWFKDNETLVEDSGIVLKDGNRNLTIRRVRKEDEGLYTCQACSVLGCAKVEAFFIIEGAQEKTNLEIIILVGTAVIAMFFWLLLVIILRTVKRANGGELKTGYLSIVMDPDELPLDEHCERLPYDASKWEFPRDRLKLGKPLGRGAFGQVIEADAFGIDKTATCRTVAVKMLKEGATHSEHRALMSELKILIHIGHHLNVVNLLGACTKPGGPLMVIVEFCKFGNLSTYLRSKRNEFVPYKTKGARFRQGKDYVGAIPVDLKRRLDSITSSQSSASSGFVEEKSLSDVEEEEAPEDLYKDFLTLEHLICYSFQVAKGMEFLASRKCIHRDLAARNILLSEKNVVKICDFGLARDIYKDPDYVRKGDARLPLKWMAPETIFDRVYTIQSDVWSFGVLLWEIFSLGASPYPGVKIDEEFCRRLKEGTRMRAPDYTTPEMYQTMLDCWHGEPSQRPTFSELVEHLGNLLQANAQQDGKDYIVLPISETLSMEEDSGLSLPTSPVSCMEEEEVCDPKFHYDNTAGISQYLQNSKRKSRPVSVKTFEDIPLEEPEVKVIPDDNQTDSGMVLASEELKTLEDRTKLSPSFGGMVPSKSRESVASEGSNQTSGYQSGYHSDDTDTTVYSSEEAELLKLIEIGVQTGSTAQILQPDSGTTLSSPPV
Method in brief: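 Proliferation read-out by Alamar Blue fluorescence (ex. 540 nm, em. 590 nm) after 4 hours, following 24 hours of compound treatment at 37° C of 20000 Ba/F3-KDR cells per well in RPMI-1640/10% FBS. Same protocol with 10 ng/ml murine IL3 serves as counterscreen.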

[5] = target: Ba/F3-FGFR4-transfected cells (Homo sapiens, UniProt P22455); experiment: Ba/F3-FGFR4 cellular proliferation assay, Alamar Blue; assay type: cell-based
Sequence of Ba/F3-FGFR4-transfected cells (P22455 whole entry, change not shown): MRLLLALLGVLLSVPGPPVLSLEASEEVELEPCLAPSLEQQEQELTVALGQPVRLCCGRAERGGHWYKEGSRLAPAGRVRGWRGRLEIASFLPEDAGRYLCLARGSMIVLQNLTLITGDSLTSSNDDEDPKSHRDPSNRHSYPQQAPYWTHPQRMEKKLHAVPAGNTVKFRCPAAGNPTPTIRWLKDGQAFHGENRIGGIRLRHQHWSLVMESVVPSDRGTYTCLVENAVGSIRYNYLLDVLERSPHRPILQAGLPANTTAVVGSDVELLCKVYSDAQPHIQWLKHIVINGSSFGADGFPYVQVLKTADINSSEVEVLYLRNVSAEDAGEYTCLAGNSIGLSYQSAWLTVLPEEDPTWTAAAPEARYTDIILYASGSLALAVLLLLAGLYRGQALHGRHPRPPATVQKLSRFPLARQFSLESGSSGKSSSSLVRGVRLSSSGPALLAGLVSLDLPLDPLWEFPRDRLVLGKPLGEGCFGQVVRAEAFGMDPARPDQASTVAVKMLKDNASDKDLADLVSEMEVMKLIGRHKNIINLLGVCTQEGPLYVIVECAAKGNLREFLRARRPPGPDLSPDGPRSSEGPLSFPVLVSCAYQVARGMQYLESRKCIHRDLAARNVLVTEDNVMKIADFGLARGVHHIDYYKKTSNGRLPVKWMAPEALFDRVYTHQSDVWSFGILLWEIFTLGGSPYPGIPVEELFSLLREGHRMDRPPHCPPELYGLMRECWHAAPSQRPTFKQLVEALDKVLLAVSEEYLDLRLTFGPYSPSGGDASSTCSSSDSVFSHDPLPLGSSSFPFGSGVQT
Method in brief: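 Proliferation is measured by resazurin reduction: after 24 h compound treatment at 37 °C in RPMI-1640/10% FBS, cells get Alamar Blue for 4 h before RFU read (540/590 nm). Each well holds 20000 Ba/F3-FGFR4-transfected cells.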

Sequence of KDR (h) (P35968 20-1356): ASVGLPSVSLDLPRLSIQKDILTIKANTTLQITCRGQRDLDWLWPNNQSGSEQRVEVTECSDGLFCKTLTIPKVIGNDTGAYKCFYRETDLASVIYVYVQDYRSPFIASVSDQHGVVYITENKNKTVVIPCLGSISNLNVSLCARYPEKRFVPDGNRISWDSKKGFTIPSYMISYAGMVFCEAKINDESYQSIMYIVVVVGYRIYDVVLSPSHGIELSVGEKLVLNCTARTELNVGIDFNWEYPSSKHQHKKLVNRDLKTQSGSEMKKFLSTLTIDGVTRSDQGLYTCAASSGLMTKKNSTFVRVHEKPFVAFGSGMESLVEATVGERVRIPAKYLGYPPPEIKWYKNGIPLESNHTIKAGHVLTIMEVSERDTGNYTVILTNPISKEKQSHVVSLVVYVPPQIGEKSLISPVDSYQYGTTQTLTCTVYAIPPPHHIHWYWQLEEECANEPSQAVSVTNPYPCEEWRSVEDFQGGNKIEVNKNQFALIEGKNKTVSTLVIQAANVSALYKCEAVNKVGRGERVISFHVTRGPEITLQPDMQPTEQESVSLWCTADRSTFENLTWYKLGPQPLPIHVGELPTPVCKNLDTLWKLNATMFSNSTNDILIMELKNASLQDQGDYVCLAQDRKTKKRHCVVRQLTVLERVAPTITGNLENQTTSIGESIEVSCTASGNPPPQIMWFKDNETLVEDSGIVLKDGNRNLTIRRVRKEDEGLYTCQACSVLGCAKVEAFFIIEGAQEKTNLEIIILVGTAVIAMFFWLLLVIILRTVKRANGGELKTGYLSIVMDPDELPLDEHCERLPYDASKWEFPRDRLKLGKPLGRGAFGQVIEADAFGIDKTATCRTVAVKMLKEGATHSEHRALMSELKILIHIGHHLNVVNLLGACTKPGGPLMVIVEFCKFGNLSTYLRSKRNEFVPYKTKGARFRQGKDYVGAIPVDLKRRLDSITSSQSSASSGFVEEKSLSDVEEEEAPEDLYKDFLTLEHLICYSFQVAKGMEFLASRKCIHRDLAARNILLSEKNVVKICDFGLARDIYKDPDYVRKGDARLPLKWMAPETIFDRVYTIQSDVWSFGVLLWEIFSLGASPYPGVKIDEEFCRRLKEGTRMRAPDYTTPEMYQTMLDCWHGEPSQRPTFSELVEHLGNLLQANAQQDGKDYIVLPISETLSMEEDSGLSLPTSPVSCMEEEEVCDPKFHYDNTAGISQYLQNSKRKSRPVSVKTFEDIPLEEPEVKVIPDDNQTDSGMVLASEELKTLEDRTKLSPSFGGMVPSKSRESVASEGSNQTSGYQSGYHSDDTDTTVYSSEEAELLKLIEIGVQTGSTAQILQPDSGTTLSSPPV

Row | Compound | IC50 (KDR (h)) | IC50 [1] | BAF3-FGFR3 (MIN IL3) pIC50 [2] | IC50 [3] | BAF3-KDR (MIN IL3) pIC50 [4] | BAF3-FGFR4 pIC50 [5]
1 | COc1cc(OC)c(F)c(N(CC2CCC(=O)N2C)c2ccc3ncc(-c4cnn(C)c4)nc3n2)c1 (stereo not drawn) [Compound 159] | 83.2 nM | > 10000 nM | 6.30 | > 10000 nM | 5.17 | 6.20
2 | COc1cc(OC)c(F)c(/N=c2\ccc3ncc(-c4cnn(C)c4)nc3n2CCN(C2COC2)C2COC2)c1F [Compound 164] | 3.39 nM | > 10000 nM | 7.89 | > 10000 nM | 6.86 | ~7.66
3 | COc1cc(/N=c2\ccc3ncc(-c4cnn(C)c4)nc3n2CC2CCCOC2)cc(OC)c1 (stereo not drawn) [Compound 165] | 6.31 nM | > 10000 nM | 7.32 | > 10000 nM | 6.30 | 7.13
4 | COc1cc(OC)cc(N(CC2CCCOC2)c2ccc3ncc(-c4cnn(C)c4)nc3n2)c1 (stereo not drawn) [Compound 166] | 55 nM | > 10000 nM | 6.65 | > 10000 nM | 5.07 | 6.24
5 | COc1cc(/N=c2\ccc3ncc(-c4cnn(C)c4)nc3n2CCN)c(F)c(OC)c1 [Compound 167] | 16.2 nM | > 10000 nM | 6.72 | > 10000 nM | 5.63 | 6.31
6 | COc1cc(OC)c(F)c(N(CCN)c2ccc3ncc(-c4cnn(C)c4)nc3n2)c1 [Compound 168] | 15.8 nM | > 10000 nM | 6.76 | > 10000 nM | 5.57 | 6.72
7 | COc1cc(OC)c(F)c(N(CC#N)c2ccc3ncc(-c4cnn(C)c4)nc3n2)c1F [Compound 173] | 8.91 nM | > 10000 nM | ~8.04 | > 10000 nM | 5.78 | 7.61
8 | COc1cc(OC)cc(N(Cc2nc(OC)cc(OC)n2)c2ccc3ncc(-c4cnn(C)c4)nc3n2)c1 [Compound 174] | 89.1 nM | > 10000 nM | 5.57 | > 10000 nM | <5 | 5.45
9 | Cn1cc(-c2cnc3ccc(N(Cc4ncc[nH]4)c4c(F)c(F)cc(F)c4F)nc3n2)cn1 [Compound 175] | 219 nM | > 10000 nM | 6.86 | > 10000 nM | <5 | 6.75
10 | COc1cc(OC)c(F)c(N(Cc2ncco2)c2ccc3ncc(-c4cnn(C)c4)nc3n2)c1 [Compound 177] | 10.5 nM | > 10000 nM | 7.10 | > 10000 nM | 5.67 | 6.79
11 | COc1cc(OC)c(F)c(N(Cc2c(C)noc2C)c2ccc3ncc(-c4cnn(C)c4)nc3n2)c1 [Compound 178] | 61.7 nM | > 10000 nM | 6.29 | > 10000 nM | <5 | 5.83
12 | COc1cc(/N=c2\ccc3ncc(-c4cnn(C)c4)nc3n2Cc2c(C)noc2C)c(F)c(OC)c1 [Compound 179] | 12.3 nM | > 3020 nM | <5.52 | > 3020 nM | <5.52 | <5.52
13 | COc1cc(OC)c(F)c(N(Cc2cc(C)on2)c2ccc3ncc(-c4cnn(C)c4)nc3n2)c1 [Compound 180] | 9.55 nM | > 10000 nM | 7.36 | > 10000 nM | 5.58 | 7.10
14 | COc1cc(/N=c2\ccc3ncc(-c4cnn(C)c4)nc3n2Cc2cc(C)on2)c(F)c(OC)c1 [Compound 181] | 6.76 nM | > 10000 nM | 8.05 | > 10000 nM | 5.97 | 7.55
15 | COc1cc(OC)cc(N(Cc2ncc[nH]2)c2ccc3ncc(-c4cccnc4)nc3n2)c1 [Compound 182] | 64.6 nM | > 10000 nM | ~7.76 | > 10000 nM | 5.48 | 7.17
16 | COc1cc(/N=c2\ccc3ncc(-c4cnn(C)c4)nc3n2Cc2cc(C)no2)c(F)c(OC)c1 [Compound 184] | 4.79 nM | > 10000 nM | ~8.15 | > 10000 nM | 6.71 | 8.03
17 | COc1cc(OC)c(F)c(N(Cc2cc(C)no2)c2ccc3ncc(-c4cnn(C)c4)nc3n2)c1 [Compound 185] | 17.8 nM | > 10000 nM | 7.64 | > 10000 nM | 5.51 | 7.39
18 | COc1cc(OC)cc(N(Cc2noc(C)n2)c2ccc3ncc(-c4cnn(C)c4)nc3n2)c1 [Compound 186] | 45.7 nM | > 10000 nM | ~7.11 | > 10000 nM | 5.20 | 6.36
19 | COc1cc(OC)cc(N(Cc2nnc(N)o2)c2ccc3ncc(-c4cnn(C)c4)nc3n2)c1 [Compound 188] | 33.9 nM | > 10000 nM | ~7.15 | > 10000 nM | 5.63 | 6.62
20 | COc1cc(OC)c(F)c(N(Cc2ncc[nH]2)c2ccc3ncc(-c4cn[nH]c4)nc3n2)c1 [Compound 190] | 7.94 nM | > 10000 nM | ~8.15 | > 10000 nM | 6.46 | 8.08
21 | COc1cc(OC)c(F)c(N(Cc2ncc[nH]2)c2ccc3ncc(-c4cccnc4)nc3n2)c1 [Compound 190a] | 28.8 nM | > 10000 nM | 7.72 | > 10000 nM | 5.82 | 7.11
22 | COc1cc(OC)c(F)c(N(CC2CCC(=O)N2CCO)c2ccc3ncc(-c4cnn(C)c4)nc3n2)c1 (stereo not drawn) [Compound 194] | 126 nM | > 10000 nM | 6.16 | > 10000 nM | 5.18 | 5.50
23 | COc1cc(OC)c(F)c(N(Cc2cnn(C)c2)c2ccc3ncc(-c4cnn(C)c4)nc3n2)c1 [Compound 195] | 11.5 nM | > 10000 nM | 8.09 | > 10000 nM | 5.79 | 7.33
24 | COc1cc(/N=c2\ccc3ncc(-c4cnn(C)c4)nc3n2Cc2cnn(C)c2)c(F)c(OC)c1 [Compound 196] | 3.98 nM | > 10000 nM | ~8.66 | > 10000 nM | 7.41 | ~8.62
25 | COc1cc(OC)cc(N(Cc2nn[nH]n2)c2ccc3ncc(-c4cnn(C)c4)nc3n2)c1 [Compound 197] | 145 nM | > 10000 nM | <5 | > 10000 nM | <5 | <5

Reference: US9309242B2, “Substituted pyrido[2,3-b]pyrazines as FGFR kinase inhibitors” (priority 2011, dated 2016)
